The values that follow come from patent publication US6649643B1, “Imidazol-4-ylmehanols and their use as inhibitors of steroid C17-20 lyase” (Takeda Chemical Industries, Ltd., priority 1999, dated 2003).

Test [1] concerns the target T1, Rat Steroid C17,20-lyase (Rattus norvegicus, UniProt P11715).
T1 construct: Testes excised from 13-week old, male SD rats were homogenized, and testicular microsomes were prepared; from tissue; host or cells: testicular microsomes of 13-week old male SD rats
T1 sequence (P11715 1-507): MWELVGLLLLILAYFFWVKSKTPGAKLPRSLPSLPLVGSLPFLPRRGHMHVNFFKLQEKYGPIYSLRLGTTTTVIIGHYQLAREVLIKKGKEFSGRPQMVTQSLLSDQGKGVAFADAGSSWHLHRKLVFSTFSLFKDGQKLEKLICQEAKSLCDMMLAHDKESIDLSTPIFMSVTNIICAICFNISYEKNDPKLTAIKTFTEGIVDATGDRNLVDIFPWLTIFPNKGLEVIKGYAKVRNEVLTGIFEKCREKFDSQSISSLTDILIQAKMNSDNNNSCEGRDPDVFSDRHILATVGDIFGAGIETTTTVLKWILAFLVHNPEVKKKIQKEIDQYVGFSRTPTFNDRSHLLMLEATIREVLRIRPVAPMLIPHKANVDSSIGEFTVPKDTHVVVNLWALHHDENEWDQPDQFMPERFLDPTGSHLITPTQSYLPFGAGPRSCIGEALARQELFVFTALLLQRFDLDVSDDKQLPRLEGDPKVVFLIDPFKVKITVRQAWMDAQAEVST
The test is described as follows: Inhibitory activity on a rat steroid C17,20-lyase in vitro. The test is classed as biochemical. The settings on record: rat testicular microsomes, 10 nM [1,2-3H]-17-α-hydroxyprogesterone, NADPH, 7 min at 37° C., products testosterone and androstenedione. The protocol: Assay of Inhibitory Activity on a Rat Steroid C17,20-lyase in Vitro
Inhibitory activity was determined according to the method described in The Prostate, vol. 26, 140-150(1995) with some modifications.
Testes excised from 13-week old, male SD rats were homogenized, and testicular microsomes were prepared by a series of centrifugation. The microsome protein (7 μg/10 μl) was added to 101 μl of 100 mM phosphate buffer (pH 7.4) in which 10 nM (final concentration) [1,2-3H]-17-α-hydroxyprogesterone, NADPH, and test compounds were dissolved. The reaction mixture was incubated for 7 min at 37° C., terminated by addition of 40 μl of ethyl acetate, and briefly centrifuged. The substrate and the products (testosterone and androstenedione) in the upper phase were separated by silica gel thin layer chromatography. Detection of the spots and measurement of the radioactivity were performed by a BAS 2000 Bioimage analyzer. The concentration of the test compounds necessary to reduce the concentration of the products by 50% (The concentration in the control group in which no test compound was added was taken as 100%) was calculated, and shown in Table 1.

In test [2] the test system is testosterone biosynthesis. The test can be described thus: Inhibitory activity on testosterone biosynthesis in rats. In kind it is in vivo, rat. The settings on record: male SD rats, oral, 50 mg/kg, serum testosterone 2 h later by radioimmunoassay, percentage of control group. Here is the method:
Assay of Inhibitory Activity on Testosterone Biosynthesis in Rats
Test compounds were orally administered to 9-week old, male SD (Sprague-Dawley rats at a dose of 50 mg/kg. Two-h later blood was taken and testosterone concentration in serum was measured by radioimmunoassay. The percentage of the testosterone concentration of the groups of rats, which received test compounds, to that of the control group was calculated, and regarded as the inhibitory activity.

Where a name gives a salt, the structure may show the parent alone.

The term IC50 denotes the concentration that inhibits the measured activity by half. Regarding `CC(C)C(O)(c1ccc2cc(-c3ccco3)ccc2c1)c1c[nH]cn1` (stereo not drawn) [Example 2, 1-(6-(2-Furyl)-2-naphthyl)-1-(1H-imidazol-4-yl)-2-methyl-1-propanol], in test [1], the IC50 turned out to be 0.028 µM.

As for `CC(C)C(O)(c1ccc2cc(-c3cn[nH]c3)ccc2c1)c1c[nH]cn1` (stereo not drawn) [Example 6, 1-(1H-Imidazol-4-yl)-2-methyl-1-(6-(1H-pyrazol-4-yl)-2-naphthyl)-1-propanol], the 50% inhibitory concentration (IC50) in test [1] turned out to be 0.015 µM. Moreover, the “Inhibitory activity on testosterone bioxynthesis (T/C, %)” value (shortened to “Inhibitory activity … (T/C, %)”) in test [2] is reported as 10%. The compound `CC(C)C(O)(c1ccc2cc(-c3cnco3)ccc2c1)c1c[nH]cn1` (stereo not drawn) [Example 7, 1-(1H-Imidazol-4-yl)-2-methyl-1-(6-(1,3-oxazol-5-yl)-2-naphthyl)-1-propanol] came in with an IC50 in test [1] of 0.014 µM.

`CNC(=O)c1ccc2cc(C(O)(c3c[nH]cn3)C(C)C)ccc2c1` (stereo not drawn) [Example 9, 6-(1-Hydroxy-1-(1H-imidazol-4-yl)-2-methyl-propyl)-N-methyl-2-naphthamide] registered an IC50 in test [1] of 0.0061 µM. Besides, the “Inhibitory activity … (T/C, %)” value in test [2] turned out to be 4.5%.

`CCC(O)(c1ccc2c3c(ccc2c1)OCC3)c1c[nH]cn1` (stereo not drawn) [Example 18, 1-(1,2-Dihydronaphtho[2,1-b]furan-7-yl)-1-(1H-imidazol-4-yl)-1-propanol] returned an IC50 in test [1] of 0.018 µM. Further, in test [2], the “Inhibitory activity … (T/C, %)” value is given as 7.4%. Take `COc1cc2ccc([C@](O)(c3c[nH]cn3)C(C)C)cc2cc1OC` [Example 22, (S)-(−)-1-(6,7-Dimethoxy-2-naphthyl)-1-(1H-imidazol-4-yl)-2-methyl-1-propanol.fumaric Acid Salt]: the midpoint of inhibition in test [1], the IC50, lay at 0.0033 µM.
